Source: patent US20220081435A1, “ANDROGEN RECEPTOR PROTEIN DEGRADERS” (THE REGENTS OF THE UNIVERSITY OF MICHIGAN, priority 2019, published 2022)
Blank lines part the entries; values can stand above or below the compound they belong to.

Tests used:
[1] = system: AR-amplified prostate cancer cells; details: cited from earlier work
AR protein = molecular target: T1, AR protein (Homo sapiens, UniProt P10275, T878A); test: AR protein degradation in LNCaP cells (Western blotting); type: cell-based; details: treatment time 6 h, average of three independent experiments
T1 construct: The percent AR protein degradation induced by these compounds at various concentrations in LNCaP cells; host or cells: LNCaP
T1 sequence (P10275 1-920 T878A): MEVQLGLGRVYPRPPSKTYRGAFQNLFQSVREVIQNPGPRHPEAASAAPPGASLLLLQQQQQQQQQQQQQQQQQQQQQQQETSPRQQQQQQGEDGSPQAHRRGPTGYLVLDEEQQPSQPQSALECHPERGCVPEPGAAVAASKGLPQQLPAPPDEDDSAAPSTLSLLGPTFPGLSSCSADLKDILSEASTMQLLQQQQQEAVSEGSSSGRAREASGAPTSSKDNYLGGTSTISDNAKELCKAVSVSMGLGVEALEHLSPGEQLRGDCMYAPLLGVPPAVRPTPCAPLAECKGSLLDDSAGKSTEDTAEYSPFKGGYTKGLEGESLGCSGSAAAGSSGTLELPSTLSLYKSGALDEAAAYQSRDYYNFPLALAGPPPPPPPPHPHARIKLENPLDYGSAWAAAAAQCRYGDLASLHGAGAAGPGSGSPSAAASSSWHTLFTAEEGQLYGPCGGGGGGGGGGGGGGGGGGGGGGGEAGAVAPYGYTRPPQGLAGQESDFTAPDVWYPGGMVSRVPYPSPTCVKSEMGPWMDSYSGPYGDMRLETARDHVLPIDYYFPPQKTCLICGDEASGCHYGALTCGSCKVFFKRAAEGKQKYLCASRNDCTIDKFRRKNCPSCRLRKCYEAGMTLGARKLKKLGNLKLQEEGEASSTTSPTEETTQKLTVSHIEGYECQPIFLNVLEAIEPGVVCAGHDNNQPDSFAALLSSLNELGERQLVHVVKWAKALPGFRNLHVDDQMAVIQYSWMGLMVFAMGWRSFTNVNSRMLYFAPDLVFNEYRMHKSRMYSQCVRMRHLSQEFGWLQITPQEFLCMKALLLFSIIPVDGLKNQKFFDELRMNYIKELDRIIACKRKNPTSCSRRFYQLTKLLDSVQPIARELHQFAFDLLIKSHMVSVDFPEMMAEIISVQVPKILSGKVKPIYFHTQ
Procedure, shortened: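 LNCaP cells were cultured with 10% FBS at 37° C and lysed in RIPA buffer after treatment. AR levels were measured by Western blot. Degradation percentage was quantified by densitometry as the background-corrected AR band relative to the loading control.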

VHL-ElonginBC complex = molecular target: T2, VHL-ElonginBC complex (Homo sapiens, UniProt P40337); test: Fluorescence-polarization competitive binding assay for VHL protein
T2 construct: His-TEV (cleaved yes); made in house; host or cells: E. coli BL21(DE3)
Description: Cloning and Purification of VHL-ElonginBC complex. […] The cells were induced overnight with 0.4 mM IPTG at 24° C. […] The cell suspension was lysed by sonication and debris removed via centrifugation. […] The protein complex was eluted in 20 mM Tris-HCl pH 7.0, 200 mM NaCl and 300 mM Imidazole, dialyzed into 20 mM Tris-HCl pH 7.0, 150 mM NaCl, and 0.01% bME and incubated with TEV protease overnight at 4° C. […] The flow through containing the VHL complex was diluted to 75 mM NaCl and applied to a HiTrap Q column (GE Healthcare). The sample was eluted with a salt gradient (0.075-1 M NaCl), concentrated and further purified on a Superdex S75 column (GE Healthcare) pre-equilibrated with 20 mM Bis-Tris 7.0, 150 mM NaCl and 1 mM DTT. Samples were aliquoted and stored at −80° C.
The IC50 and Ki values of compounds were determined in competitive binding experiments. […] IC50 values were determined by nonlinear regression fitting of the competition curves. Ki values of competitive inhibitors were obtained directly by nonlinear regression fitting, based upon the KD values of the probe and concentrations of the protein and probe in the competitive assays. All the FP competitive experiments were performed in duplicate in three independent experiments.

Compound: Cc1ncsc1-c1ccc(CNC(=O)[C@@H]2C[C@@H](O)CN2C(=O)[C@@H](NC(=O)COCCCCOc2ccc(-c3ccc(N4C(=S)N(c5ccc(C#N)c(C(F)(F)F)c5)C(=O)C4(C)C)cc3)cc2)C(C)(C)C)cc1 [ARCC-4, (4R)-1-((S)-2-(2-(4-((4′-(3-(4-cyano-3-(trifluoromethyl)phenyl)-5,5-dimethyl-4-oxo-2-thioxoimidazolidin-1-yl)-[1,1′-biphenyl]-4-yl)oxy)butoxy)acetamido)-3,3-dimethylbutanoyl)-4-hydroxy-N-(4-(4-methylthiazol-5-yl)benzyl)pyrrolidine-2-carboxamide]
Inducing apoptosis and inhibiting proliferation, compared with enzalutamide [1]: more potent and effective than enzalutamide

Compound: CC(=O)N[C@H](C(=O)N1C[C@H](O)C[C@H]1C(=O)N[C@@H](CC(=O)N1CCC(N2CCC(C#Cc3ccc(C(=O)N[C@H]4C(C)(C)[C@H](Oc5ccc(C#N)c(Cl)c5)C4(C)C)cc3)CC2)CC1)c1ccc(-c2scnc2C)cc1)C(C)(C)C [Compound 36, (2S,4R)-1-((S)-2-Acetamido-3,3-dimethylbutanoyl)-N—((S)-3-(4-((4-(((1r,3r)-3-(3-chloro-4-cyanophenoxy)-2,2,4,4-tetramethylcyclobutyl)carbamoyl)phenyl)ethynyl)-[1,4′-bipiperidin]-1′-yl)-1-(4-(4-methylthiazol-5-yl)phenyl)-3-oxopropyl)-4-hydroxypyrrolidine-2-carboxamide]
% AR protein degradation in LNCaP Cells (AR protein; 0.01 μM): 39%
% AR protein degradation in LNCaP Cells (AR protein; 0.1 μM): 77%
% AR protein degradation in LNCaP Cells (AR protein; 1 μM): 99%

Compound: Cc1ncsc1-c1ccc([C@@H](CC(=O)N2CCC(N3CCC(C#Cc4ccc(C(=O)N[C@H]5C(C)(C)[C@H](Oc6ccc(C#N)c(Cl)c6)C5(C)C)cc4)CC3)CC2)NC(=O)[C@@H]2C[C@@H](O)CN2C(=O)[C@@H](NC(=O)C2(F)CC2)C(C)(C)C)cc1 [Compound 37, (2S,4R)—N—((R)-3-(4-((4-(((1r,3r)-3-(3-Chloro-4-cyanophenoxy)-2,2,4,4-tetramethyl-cyclobutyl)carbamoyl)phenyl)ethynyl)-[1,4′-bipiperidin]-1′-yl)-1-(4-(4-methylthiazol-5-yl)phenyl)-3-oxopropyl)-1-((S)-2-(1-fluorocyclopropane-1-carboxamido)-3,3-dimethyl-butanoyl)-4-hydroxypyrrolidine-2-carboxamide]
% AR protein degradation in LNCaP Cells (AR protein; 0.1 μM): <5%
% AR protein degradation in LNCaP Cells (AR protein; 1 μM): <5%
% AR protein degradation in LNCaP Cells (AR protein; 10 μM): <5%

Compound: Cc1ncsc1-c1ccc([C@H](CC(=O)N2CCC(N3CCC(C#Cc4ccc(C(=O)N[C@H]5C(C)(C)[C@H](Oc6ccc(C#N)c(Cl)c6)C5(C)C)cc4)CC3)CC2)NC(=O)[C@@H]2C[C@@H](O)CN2C(=O)[C@H](NC(=O)C2(F)CC2)C(C)(C)C)cc1 [Compound 38, (2S,4R)—N—((S)-3-(4-((4-(((1r,3r)-3-(3-Chloro-4-cyanophenoxy)-2,2,4,4-tetramethyl-cyclobutyl)carbamoyl)phenyl)ethynyl)-[1,4′-bipiperidin]-1′-yl)-1-(4-(4-methylthiazol-5-yl)phenyl)-3-oxopropyl)-1-((R)-2-(1-fluorocyclopropane-1-carboxamido)-3,3-dimethyl-butanoyl)-4-hydroxypyrrolidine-2-carboxamide]
% AR protein degradation in LNCaP Cells (AR protein; 0.1 μM): <5%
% AR protein degradation in LNCaP Cells (AR protein; 1 μM): <5%
% AR protein degradation in LNCaP Cells (AR protein; 10 μM): <5%

Dmax at 0.01 µM (AR protein; LNCaP, 0.01 μM): 43%
Dmax at 0.1 µM (AR protein; LNCaP, 0.1 μM, read-out: % AR protein degradation in LNCaP Cells): 91%
Dmax at 1 µM (AR protein; LNCaP, 1 μM, read-out: % AR protein degradation in LNCaP Cells): 96%
Compound: Cc1cc([C@H](C(=O)N2C[C@H](O)C[C@H]2C(=O)N[C@@H](CC(=O)NCCCCCCCCCNC(=O)c2ccc(C(=O)N[C@H]3C(C)(C)[C@H](Oc4ccc(C#N)c(Cl)c4)C3(C)C)cc2)c2ccc(-c3scnc3C)cc2)C(C)C)on1 [Compound 39, N1-((1r,3r)-3-(3-Chloro-4-cyanophenoxy)-2,2,4,4-tetramethylcyclobutyl)-N4-(9-((S)-3-((2S,4R)-4-hydroxy-1-((R)-3-methyl-2-(3-methylisoxazol-5-yl)butanoyl)pyrrolidine-2-carboxamido)-3-(4-(4-methylthiazol-5-yl)phenyl)propanamido)nonyl)terephthalamide]

Kd (VHL-ElonginBC complex; tracer binding to VHL complex (VHL, Elongin B, Elongin C)): 2.4 nM
Compound: Cc1cc([C@H](C(=O)N2C[C@H](O)C[C@H]2C(=O)N[C@@H](CC(=O)NCCOCCOCCOCCNC(=O)c2ccc3c(c2)C(=O)OC32c3ccc(O)cc3Oc3cc(O)ccc32)c2ccc(-c3scnc3C)cc2)C(C)C)on1 [HXC78, (2S,4R)—N—((S)-1-(3′,6′-dihydroxy-3-oxo-3H-spiro[isobenzofuran-1,9′-xanthen]-5-yl)-17-(4-(4-methylthiazol-5-yl)phenyl)-1,15-dioxo-5,8,11-trioxa-2,14-diazaheptadecan-17-yl)-4-hydroxy-1-((R)-3-methyl-2-(3-methylisoxazol-5-yl)butanoyl)pyrrolidine-2-carboxamide, reference compound]

IC50 (VHL-ElonginBC complex; FP competition, VHL protein and fluorescent probe both 5 nM): 164 ± 13 nM
Compound: CC(=O)N[C@H](C(=O)N1C[C@H](O)C[C@H]1C(=O)N[C@@H](C)c1ccc(-c2scnc2C)cc1)C(C)(C)C [VHL-b, (2S,4R)-1-((S)-2-acetamido-3,3-dimethylbutanoyl)-4-hydroxy-N—((S)-1-(4-(4-methylthiazol-5-yl)phenyl)ethyl)pyrrolidine-2-carboxamide]
